What all share (format): cell-based
The target in one assay is T1, CFTR ΔF508 mutant (Homo sapiens, UniProt P13569, DEL508-508).
T1 construct: expressed in transfected cells; host or cells: CFBE41o- cells, adenoviral transduction
As to the kind of experiment: YFP-halide influx assay for the CFTR-ΔF508 mutation (CFBE41o- cells). As to conditions: forskolin 10.67 μM; for EC50: from (1−F/F0) vs concentration plot. The method, boiled down:
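CFBE41o- cells transduced with adenovirus expressing CFTR ΔF508 and halide-sensitive YFP H148Q/I152L/F47L, then held 24 h at 27° C or with a CFTR modulator 24 h at 37° C. Iodide-induced quench recorded 2 min; EC50 from (1−F/F0) at 36 s versus concentration.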

The next assay has as its target T2, CFTR G551D mutant (Homo sapiens, UniProt P13569, G551D).
T2 construct: expressed in transfected cells; host or cells: HEK293 cells, reverse transfection with plasmids
The experiment in a line: YFP-halide influx assay for the CFTR-G551D mutation (HEK293 cells). As to conditions: forskolin 10.67 μM. An outline of the steps:
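HEK293 cells reverse-transfected with CFTR G551D and halide-sensitive YFP (H148Q/I152L/F47L), expressed 24 h at 37 °C. YFP fluorescence quenching recorded for 7 s after I⁻ injection. Response = 1−F/F0; EC50 derived from 1−F/F0 vs compound concentration.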

The target of another assay is T3, CFTR-G178R (Homo sapiens, UniProt P13569, G178R).
T3 construct: expressed in transfected cells
T3 sequence (P13569 whole entry G178R): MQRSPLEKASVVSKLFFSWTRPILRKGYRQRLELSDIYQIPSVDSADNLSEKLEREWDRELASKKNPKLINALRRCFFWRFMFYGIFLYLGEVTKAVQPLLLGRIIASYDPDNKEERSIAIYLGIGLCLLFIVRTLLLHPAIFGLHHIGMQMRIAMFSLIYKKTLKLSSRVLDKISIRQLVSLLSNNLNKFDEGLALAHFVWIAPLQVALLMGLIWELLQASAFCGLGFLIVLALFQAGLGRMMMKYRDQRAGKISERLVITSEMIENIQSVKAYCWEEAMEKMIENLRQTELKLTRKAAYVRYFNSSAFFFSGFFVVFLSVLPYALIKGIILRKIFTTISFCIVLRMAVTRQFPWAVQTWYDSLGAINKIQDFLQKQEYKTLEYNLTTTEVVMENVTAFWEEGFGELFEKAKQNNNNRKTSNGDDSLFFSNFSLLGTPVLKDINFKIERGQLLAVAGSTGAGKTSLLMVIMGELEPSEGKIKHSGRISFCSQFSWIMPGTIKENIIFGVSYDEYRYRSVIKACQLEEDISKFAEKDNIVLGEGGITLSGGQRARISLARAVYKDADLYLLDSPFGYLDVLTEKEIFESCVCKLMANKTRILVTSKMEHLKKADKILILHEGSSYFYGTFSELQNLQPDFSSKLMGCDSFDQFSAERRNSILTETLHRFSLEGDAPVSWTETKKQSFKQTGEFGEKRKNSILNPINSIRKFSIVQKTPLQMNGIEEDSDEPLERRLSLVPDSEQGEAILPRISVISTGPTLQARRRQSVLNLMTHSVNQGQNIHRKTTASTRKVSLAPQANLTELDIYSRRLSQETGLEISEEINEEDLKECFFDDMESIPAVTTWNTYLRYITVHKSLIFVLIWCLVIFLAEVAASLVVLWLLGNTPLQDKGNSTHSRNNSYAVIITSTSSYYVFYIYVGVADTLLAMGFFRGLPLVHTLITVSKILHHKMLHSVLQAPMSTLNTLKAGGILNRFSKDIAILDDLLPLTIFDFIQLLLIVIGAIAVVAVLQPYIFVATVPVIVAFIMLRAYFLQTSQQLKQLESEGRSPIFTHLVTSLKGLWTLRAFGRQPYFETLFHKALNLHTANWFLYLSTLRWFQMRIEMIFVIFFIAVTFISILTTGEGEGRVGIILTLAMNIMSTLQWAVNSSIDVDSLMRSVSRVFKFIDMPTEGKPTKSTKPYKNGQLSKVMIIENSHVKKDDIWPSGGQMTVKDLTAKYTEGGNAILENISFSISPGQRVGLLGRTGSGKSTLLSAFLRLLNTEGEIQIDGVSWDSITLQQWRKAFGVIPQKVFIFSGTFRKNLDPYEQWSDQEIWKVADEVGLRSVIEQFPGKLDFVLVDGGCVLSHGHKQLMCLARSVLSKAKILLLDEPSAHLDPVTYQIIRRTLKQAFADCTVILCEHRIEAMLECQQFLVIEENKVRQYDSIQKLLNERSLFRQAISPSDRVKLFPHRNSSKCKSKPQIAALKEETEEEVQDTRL
As to the kind of experiment: YFP-halide influx assay for the CFTR-G178R. The method, boiled down:
(§1)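 HEK293 cells reverse-transfected with a CFTR mutant and YFP H148Q/I152L/F47L halide sensor, expressed 24 h at 37° C. Fluorescence quenching followed for 7 s after I⁻ injection; activity expressed as 1−F/F0, with EC50 fitted from 1−F/F0 versus compound concentration.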

The next assay addresses T4, CFTR-G1349D (Homo sapiens, UniProt P13569, G1349D).
T4 construct: expressed in transfected cells
The experiment in a line: YFP-halide influx assay for the CFTR-G1349D. An outline of the steps:
as §1

A further assay has as its target T5, CFTR-S549N (Homo sapiens, UniProt P13569, S549N).
T5 construct: expressed in transfected cells
The experiment in a line: YFP-halide influx assay for the CFTR-S549N. Set-up: % Activation: concentration or dose not given beside the values. The method, boiled down:
as §1

Another assay has as its target T6, CFTR-R117H (Homo sapiens, UniProt P13569, R117H).
T6 construct: expressed in transfected cells
As to the kind of experiment: YFP-halide influx assay for the CFTR-R117H. An outline of the steps:
as §1

The next assay deals with T7, CFTR G551D/ΔF508 (Homo sapiens, UniProt P13569, G551D).
T7 construct: host or cells: primary human bronchial epithelial cells from CF patients heterozygous G551D/ΔF508, no corrector pre-treatment
T7 sequence (P13569 whole entry F508del/G551D): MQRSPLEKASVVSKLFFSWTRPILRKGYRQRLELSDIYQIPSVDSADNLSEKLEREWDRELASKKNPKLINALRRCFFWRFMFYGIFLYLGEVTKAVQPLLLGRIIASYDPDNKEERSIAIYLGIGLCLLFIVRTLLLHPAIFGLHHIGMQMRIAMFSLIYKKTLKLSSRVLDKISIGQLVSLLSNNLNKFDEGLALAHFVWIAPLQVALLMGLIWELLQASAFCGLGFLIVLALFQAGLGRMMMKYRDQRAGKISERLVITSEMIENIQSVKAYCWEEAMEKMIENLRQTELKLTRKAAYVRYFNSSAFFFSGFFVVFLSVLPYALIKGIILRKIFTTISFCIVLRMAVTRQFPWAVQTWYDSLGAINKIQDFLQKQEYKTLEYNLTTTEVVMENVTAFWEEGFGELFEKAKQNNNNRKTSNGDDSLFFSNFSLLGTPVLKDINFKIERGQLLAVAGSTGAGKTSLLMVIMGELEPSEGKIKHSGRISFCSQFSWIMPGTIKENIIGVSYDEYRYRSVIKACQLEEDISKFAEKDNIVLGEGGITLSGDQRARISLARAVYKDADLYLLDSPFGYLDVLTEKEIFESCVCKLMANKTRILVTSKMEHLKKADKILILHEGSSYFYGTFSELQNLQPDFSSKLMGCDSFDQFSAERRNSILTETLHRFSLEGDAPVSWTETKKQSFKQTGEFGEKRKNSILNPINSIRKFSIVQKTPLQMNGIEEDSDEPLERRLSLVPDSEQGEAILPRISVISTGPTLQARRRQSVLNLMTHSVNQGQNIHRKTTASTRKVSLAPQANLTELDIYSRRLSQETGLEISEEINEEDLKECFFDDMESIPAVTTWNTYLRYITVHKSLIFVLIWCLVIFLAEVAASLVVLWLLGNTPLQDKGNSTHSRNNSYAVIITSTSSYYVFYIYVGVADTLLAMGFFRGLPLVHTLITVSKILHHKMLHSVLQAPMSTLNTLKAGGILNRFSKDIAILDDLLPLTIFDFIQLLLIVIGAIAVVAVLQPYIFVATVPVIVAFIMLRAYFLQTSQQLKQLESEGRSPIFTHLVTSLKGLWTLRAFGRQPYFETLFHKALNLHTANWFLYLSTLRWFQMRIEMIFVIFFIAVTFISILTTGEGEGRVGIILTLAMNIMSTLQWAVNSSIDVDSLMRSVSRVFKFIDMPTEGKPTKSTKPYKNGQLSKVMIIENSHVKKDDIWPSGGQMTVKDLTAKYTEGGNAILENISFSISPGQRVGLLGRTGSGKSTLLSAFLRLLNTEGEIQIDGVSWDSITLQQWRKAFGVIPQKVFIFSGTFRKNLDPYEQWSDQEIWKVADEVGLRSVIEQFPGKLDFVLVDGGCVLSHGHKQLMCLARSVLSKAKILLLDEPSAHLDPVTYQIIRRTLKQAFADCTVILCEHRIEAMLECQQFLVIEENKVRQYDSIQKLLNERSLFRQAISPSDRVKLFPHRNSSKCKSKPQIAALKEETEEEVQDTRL
The experiment in a line: TECC assay, primary bronchial epithelial cells, CFTR G551D/ΔF508. As to conditions: primary bronchial epithelial cells heterozygous G551D/ΔF508, acute mode, increase in Isc after forskolin. How it is done: (§2) The TECC (Tranepithelial Clamp Circuit, EP-design) assay measures the functionality of the cystic fibrosis Transmembrane Conductance regulator (CFTR) by measuring the short circuit current (Isc) generated over the basolateral and apical membrane of lung epithelial cells. In TECC the transepithelial potential PD and transepithelial resistance (Rt) are measured in an open circuit and transformed to Isc using Ohm's law. 24 Wells can be measured simultaneously allowing a higher throughput compared to Ussing chambers.
(§3) For this purpose, bronchial epithelial cells isolated from CF patients homozygous for the CFTR ΔF508 mutation (hAEC-CF, Epithelix) are plated on type IV collagen-coated Transwell® supports (Costar). Human airway epithelia are generated by provision of an air-liquid interface for 21 days to form well-differentiated polarized cultures that resemble in vivo pseudo-stratified ciliated epithelium (Fulcher, M. L., Gabriel, S., Burns, K. A., Yankaskas, J. R., Randell, S. H., 2005. Well-differentiated human airway epithelial cell cultures. Methods Mol. Med. 107, 183-206). In the case of the homozygous ΔF508 CFTR samples, the differentiated cells are treated with 3 μM VX809 (2626 South Loop West, Suite 225, Houston, Tex. 77054 USA, Cat n# S1565) to allow sufficient expression of properly folded CFTR protein on the membrane (48 hours basolateral treatment and 24 hours apical treatment), prior to electrophysiological recordings. For heterozygous G551D/ΔF508, differentiated cells are used as such for the recordings.
(§4) Information on the compounds can be retrieved on the homozygous ΔF508 CFTR samples looking at increased CFTR activity when compounds are added in an acute mode or in a chronic mode. On G551D/ΔF508 CFTR heterozygous samples compounds are added in an acute mode to the differentiated cells.
(§5) For the acute mode, for electrophysiological recording, the human airway epithelia are mounted in the TECC heating plate for electrophysiological measurement and kept at 37° C. The epithelia are bathed in a NaCl-Ringer solution (120 mM NaCl, 25 mM NaHCO3, 1.2 mM CaCl2, 1.2 mM MgCl2, 0.8 mM KH2PO4, 0.8 mM K2HPO4, pH 7.4, 5 mM glucose) on both the basolateral and apical sides. Apical amiloride is used to inhibit the endogenous ENaC currents while forkolin is applied on both apical and basolateral side to stimulate CFTR. After forskolin triggering, compounds are added on both sides to test their potential for increasing CFTR gating. Measurements are done during a 20 minute timeframe with recordings every 2 minutes. The increase in Isc is used as a measure for the increased CFTR activity, EC50 values can be generated by measuring impact of different concentrations of compound on Isc on primary cells, for this purpose each transwell is treated with a different compound concentration. Inh-172, an inhibitor specific for CFTR, is used to test the specificity of the tested compounds.
When subjected to this protocol, the following values were obtained. The difference between ΔIsc measured as DMSO (baseline), and the ΔIsc measured with the compound tested.

In the next assay the target is T8, CFTR ΔF508 (Homo sapiens, UniProt P13569, DEL508-508).
T8 construct: host or cells: primary human bronchial epithelial cells from CF patients homozygous for ΔF508, pre-treated with VX809
T8 sequence (P13569 with tags, fused parts or gaps DEL508-508): as the sequence (P13569 whole entry F508del/G551D) above, with D550G counted along it
As to the kind of experiment: TECC assay, primary bronchial epithelial cells, CFTR ΔF508. The following applies: primary bronchial epithelial cells of CF patients homozygous for CFTR ΔF508, treated with 3 μM VX809, increase in Isc after forskolin. Here is the method:
as §2, §3, §4, §5
For the chronic mode, the differentiated cells are treated with 3 μM VX809 (2626 South Loop West, Suite 225, Houston, Tex. 77054 USA, Cat n# S1565) and potentiator compounds at different concentrations (48 hours basolateral treatment and 24 hours apical treatment), prior to electrophysiological recordings. For electrophysiological recording, the human airway epithelia are mounted in the TECC heating plate for electrophysiological measurement and kept at 37° C. The epithelia are bathed in a NaCl-Ringer solution (120 mM NaCl, 25 mM NaHCO3, 1.2 mM CaCl2, 1.2 mM MgCl2, 0.8 mM KH2PO4, 0.8 mM K2HPO4, pH 7.4, 5 mM glucose) on both the basolateral and apical sides. Apical amiloride is used to inhibit the endogenous ENaC currents while forkolin is applied on both apical and basolateral side to stimulate CFTR. Measurements are done during a 20 minute timeframe with recordings every 2 minutes. […]

T4 sequence (P13569 whole entry G1349D): as the sequence (P13569 whole entry G178R) above, with R178G, G1349D counted along it
T2 sequence (P13569 whole entry G551D): as the sequence (P13569 whole entry G178R) above, with R178G, G551D counted along it
T5 sequence (P13569 whole entry S549N): as the sequence (P13569 whole entry G178R) above, with R178G, S549N counted along it
T1 sequence (P13569 with tags, fused parts or gaps DEL508-508): as the sequence (P13569 whole entry F508del/G551D) above, with D550G counted along it
T6 sequence (P13569 whole entry R117H): as the sequence (P13569 whole entry G178R) above, with R117H, R178G counted along it

In general, EC50 refers to the concentration at which the effect is half-maximal. Consider `CC(C)OCC(O)CNC(=O)c1ncc(S(=O)(=O)c2ccc(C(F)(F)F)cc2)cc1N` (stereo not drawn) [Compound 92, 3-amino-N-[2-hydroxy-3-(propan-2-yloxy)propyl]-5-{[4-(trifluoromethyl)phenyl]sulfonyl}pyridine-2-carboxamide], for which the “% Activation” value is 118.5% on CFTR ΔF508 mutant; 79.0% on CFTR G551D mutant; 104.9% on CFTR-G178R; 91.24% at CFTR-G1349D; 98.96% on CFTR-S549N; 94.77% on CFTR-R117H. The EC50 worked out at 7.2 nM on CFTR ΔF508 mutant; 210 nM on CFTR G551D mutant; 145 nM at CFTR-G178R; 30.6 nM on CFTR-G1349D; 131 nM at CFTR-S549N; 97.7 nM at CFTR-R117H. The EC50 at CFTR G551D/ΔF508 is 144 nM.
Consider `Nc1cc(S(=O)(=O)N2CCC(C(F)(F)F)CC2)cnc1C(=O)NCC(O)C(F)(F)F` (stereo not drawn) [Compound 95, 3-amino-N-(3,3,3-trifluoro-2-hydroxypropyl)-5-{[4-(trifluoromethyl)piperidin-1-yl]sulfonyl}pyridine-2-carboxamide], for which the “% Activation” value on CFTR ΔF508 mutant was 104.0%; at CFTR G551D mutant, 54.2%; at CFTR-G178R, 80.8%; on CFTR-G1349D it was 71.97%; at CFTR-S549N it was 65.61%; at CFTR-R117H, 88.62%. In addition, the EC50 on CFTR ΔF508 mutant stood at 5.7 nM; at CFTR G551D mutant it was 300 nM; on CFTR-G178R, 226 nM; at CFTR-G1349D it was 75.4 nM; on CFTR-S549N it was 86.4 nM; at CFTR-R117H, 138 nM. In addition, the EC50 at CFTR G551D/ΔF508 worked out at 487 nM.
Turning to `Nc1cc(S(=O)(=O)c2ccccc2OC(F)(F)F)cnc1C(=O)N1CC(O)(C(F)(F)F)C1` [Compound 85, (3-amino-5-{[2-(trifluoromethoxy)phenyl]sulfonyl}pyridin-2-yl)[3-hydroxy-3-(trifluoromethyl)azetidin-1-yl]methanone], the “% Activation” value at CFTR ΔF508 mutant is recorded as 110.5%; at CFTR G551D mutant, 51.7%; on CFTR-G178R, 77.69%; on CFTR-G1349D it was 90.89%; at CFTR-S549N it was 104.8%; at CFTR-R117H, 103%. The EC50 on CFTR ΔF508 mutant is 1 nM; at CFTR G551D mutant, 28.9 nM; on CFTR-G178R it was 3.29 nM; on CFTR-G1349D, 2.73 nM; on CFTR-S549N it was 3.29 nM; at CFTR-R117H, 3.83 nM. Besides, the EC50 on CFTR G551D/ΔF508 is 9.5 nM.
Consider `Nc1cc(S(=O)(=O)c2ccc(OC(F)(F)F)cc2)cnc1C(=O)NCCC(O)C(F)(F)F` (stereo not drawn) [Compound 52, 3-amino-N-(4,4,4-trifluoro-3-hydroxybutyl)-5-{[4-(trifluoromethoxy)phenyl]sulfonyl}pyridine-2-carboxamide], for which the “% Activation” value was determined as 96.6% on CFTR ΔF508 mutant and 48.8% on CFTR G551D mutant. Moreover, the EC50 came to 8 nM on CFTR ΔF508 mutant, 458 nM at CFTR G551D mutant, 38.3 nM at CFTR ΔF508 and 461 nM at CFTR G551D/ΔF508.
In the case of `Nc1cc(S(=O)(=O)c2ccc(OC(F)(F)F)cc2)cnc1C(=O)NCC1CCCO1` (stereo not drawn) [Compound 7, 3-amino-N-(tetrahydrofuran-2-ylmethyl)-5-{[4-(trifluoromethoxy)phenyl]sulfonyl}pyridine-2-carboxamide], the “% Activation” value on CFTR ΔF508 mutant is listed as 103.5%; at CFTR G551D mutant, 73.5%; at CFTR-G1349D it was 63.0%; on CFTR-R117H, 82.7%. In addition, the EC50 on CFTR ΔF508 mutant was 69.1 nM; on CFTR G551D mutant, 723 nM; on CFTR-G1349D, 549 nM; on CFTR-R117H it was 479 nM; on CFTR G551D/ΔF508, 7720 nM.

The values are drawn from patent publication US10047051B2, “Substituted pyridines and method of use” (AbbVie S.á{acute over (.)}r.l., priority 2015, dated 2018).
